Measurements as given in US9199028B2, “Use of entrained neutrophils to treat metastatic and micrometastatic disease in at risk patients” (MEMORIAL SLOAN-KETTERING CANCER CENTER, priority 2010, dated 2015).
“Also recorded” adds a separate entry of the source.

Assays:
[1] = TGFbeta inhibitor, Tocris; cited from earlier work
[2] = system: 4T1 cells; assay: In vitro killing assay: TENs co-cultured with 4T1 cells in the presence of inhibitors or TGF-β; type: cell-based, mouse; details: TENs + 4T1 cells overnight; Apocynin 100 μM, Catalase 1,000 u/ml, Superoxide Dismutase 1,000 u/ml, Taurine 50 mM
Source text: Antibodies used for immunohistochemistry—MMP9, F4/80 and CCR2 (all from AbCam), Myeloperoxidase (Dako), Ly-6G and Cd11b (both from BD), and Cleaved Caspase 3 (Cell signalling). Antibodies used for western blotting—Actin (Sigma), CCL2 (AbCam) and CCL5 (R&D) p-SMAD2 (cell signalling). Antibodies used for FACS analysis FITC-Ly-6G, FITC-Cd11b, FITC-F4/80, FITC-Cd34 and FITC-c-Kit (all from BD) and VEGFR1-AP (R&D). Neutrophil Depletion Neutrophil depletion was achieved using daily IP injections of 12.5 μg Rat anti-Gr-1 antibody (BD) or Rat anti-Ly-6G antibody (BD) starting on day 3 post tumour engraftment. Starting on day 14, neutrophil depleting antibodies were administered twice daily. Control mice were injected with […] Rat isotype control (BD). Neutrophil depletion was monitored by manual blood differentials and FACS analysis. Flow Cytometry Peripheral blood was collected into EDTA-coated tubes, washed and resuspended in FACS buffer solution (PBS, 2% heat-inactivated FCS, 5 mM EDTA, and 0.02% sodium azide). The samples were blocked with […] and then incubated with fluorophore-conjugated antibodies. Erythrocytes were then lysed with FACS lysing solution (BD Biosciences) and the cell suspensions were analyzed on a FACSCalibur (BD Biosciences). Colony Formation Assay Female nude mice were orthotopically injected with 5×10^6 puromicin resistant 4T1 cells. On days 7 and 14 post tumour engraftment the mice were sacrificed and perfused with PBS. The lungs and livers were removed, washed with PBS and dissociated with Collagenase A (Roche). The single cell suspension was then plated onto puromicin containing media and selected for 14 day. Colonies were stained with Methylene-Blue and counted manually. Mouse Neutrophil Purification Whole blood was collected by cardiac puncture using heparinized (Sigma) syringe. The blood was diluted with 5 volumes of PBS containing 0.5% BSA and subjected to a discontinuous Histopaque (Sigma) gradient (1.077 and 1.119). Neutrophils were collected from the 1.077-1.119 interface, lymphocytes and monocytes collected from the plasma-1.077 interface. RBCs were eliminated by hypotonic lysis. The cells were washed twice with PBS-BSA and re-suspended in OptiMEM (Invitrogen) 0.5% FBS in a final concentration of 2×10^6 cells/ml. Neutrophil purity and viability were determined visually and were consistently >98%. Human Neutrophil Purification As part of a Memorial Sloan-Kettering Cancer Center institutionally approved protocol, blood samples (˜10 cc) were collected from healthy volunteers or from patients who were already having blood drawn for pre-surgical testing. Patients were consented accordingly as part of the approved protocol. […] Patients had either mastectomies or lumpectomies planned and had blood drawn prior to definitive surgical removal of their primary tumor or chemotherapy. Blood samples were transferred to the lab for analysis no more than 1 hour post-blood draw. Heparinzed blood (20 U/ml final) was mixed with an equal volume of Dextran 500 (3% in saline) and incubated 30 minutes at room temperature. The leukocyte-rich supernatant was layered on top of histopaque 1077 (Sigma) and centrifuged. Neutrophils, collected in the pellet fraction, were resuspended in 10 ml 0.2% NaCl for 30 seconds to remove contaminating erythrocytes. Isotonicity was restored by the addition of 10 ml 1.6% NaCl. Neutrophils were than washed three times in Hanks's balanced salt solution and resuspended in RPMI+FCS2%. In vitro Killing Assay Luciferase labelled cells (5,000/well) were plated on a 96-well, flat bottom white polystyrene tissue culture plate in OptiMEM 0.5% FBS (mouse neutrophils) or RPMI 2% FBS (human neutrophils). 4 hours later, purified neutrophils (100,000/well for mouse neutrophils and 5000 for human neutrophils) were added to the plated tumour cells and co-cultured overnight. […]

[3] = system: 4T1 tumour-bearing mice; assay: In vivo administration of Apocynin, spontaneous metastasis assay; set-up: species or system mouse; details: Apocynin 2.4 g/liter in drinking water from 24 hours after orthotopic 4T1 injection, vs control
Source text: 4T1, B16-F10, and Lewis Lung Carcinoma (LLC) murine tumour cell lines as well as the human MCF7 and MDA-MB-231 mammary tumour cell lines were purchased from the ATCC. The human 4175 (LM2) cell line was described in Minn, et al., Nature 436:518-524 (2005), herein incorporated by reference). CCL2 and CCL5 knockdown 4T1 cells were generated by lentiviral transduction with CCL2 and CCL5 specific shRNAs from the SKI shRNA lentiviral collection. 4T1, MCF7 and 4175 were orthotopically injected into the mammary fat pad. B16-F10 and LLC cells were injected intradermally. Spontaneous Metastasis Assay 4T1 cells were transduced with pLVX based lentiviral particles encoding for firefly luciferase. Balb/C or nude female mice were orthotopically injected with 5×10^6 luciferase labelled cells. Metastatic progression was monitored using IVIS200 imaging system to measure lung specific luciferase activity starting on day 3 post tumour engraftment. Analysis of metastases size distribution and number was done histologically. Tissue Injury Female FVB mice were anesthetized and shaved at the wounding site. An area of skin (4 mm in diameter) area of skin was surgically removed from the dorsal region. […]
Mice were orthotopically injected with 5×10^6 luciferase labelled 4T1 cells. […] Formation of lung metastases was monitored using the IVIS-200 optical in vivo imaging system. […]

Row | SMILES | IC50 [1] | neutrophil (TEN) mediated tumour-cell killing in the presence of inhibitor [2] | spontaneous lung metastasis (lung specific luciferase activity) [3]
1 | NC(=O)c1ccc(-c2nc(-c3ccc4c(c3)OCO4)c(-c3ccccn3)[nH]2)cc1 [SB431542] | 94 nM |  | 
2 | COc1cc(C(C)=O)ccc1O [Apocynin] |  | completely inhibits the neutrophil mediated tumour-cell killing | enhanced; also recorded: enhances metastasis
